According to US9320276B2, “N-hetarylmethyl pyrazolylcarboxamides” (BAYER INTELLECTUAL PROPERTY GMBH, priority 2010, dated 2016):

Assays:
Alternaria solani = assay: in vivo preventive test on Alternaria solani (tomato); settings: 500 ppm of active ingredient, evaluated 7 days after inoculation
Protocol: Solvent: 49 parts by weight of N,N-dimethylformamide Emulsifier: 1 part by weight of Alkylarylpolyglycolether To produce a suitable preparation of active compound, 1 part by weight of active compound is mixed with the stated amounts of solvent and emulsifier, and the concentrate is diluted with water to the desired concentration. To test for preventive activity, young plants are sprayed with the preparation of active compound at the stated rate of application. One day after this treatment, the plants are inoculated with an aqueous spore suspension of Alternaria solani. The plants remain for one day in an incubation cabinet at approximately 22° C. and a relative atmospheric humidity of 100%. Then the plants are placed in an incubation cabinet at approximately 20° C. and a relative atmospheric humidity of 96%. The test is evaluated 7 days after the inoculation. 0% means an efficacy which corresponds to that of the untreated control while an efficacy of 100% means that no disease is observed.

Pyrenophora teres = assay: in vivo preventive test on Pyrenophora teres (barley); settings: 500 ppm of active ingredient, evaluated 7-9 days after inoculation
Protocol: Solvent: 49 parts by weight of N,N-dimethylformamide Emulsifier: 1 part by weight of alkylaryl polyglycol ether To produce a suitable preparation of active compound, 1 part by weight of active compound is mixed with the stated amounts of solvent and emulsifier, and the concentrate is diluted with water to the desired concentration. To test for preventive activity, young plants are sprayed with the preparation of active compound at the stated rate of application. One day after this treatment, the plants are inoculated with an aqueous spore suspension of Pyrenophora teres. The plants remain for 48 hours in an incubation cabinet at 22° C. and a relative atmospheric humidity of 100%. Then the plants are placed in a greenhouse at a temperature of approximately 20° C. and a relative atmospheric humidity of approximately 80%. The test is evaluated 7-9 days after the inoculation. 0% means an efficacy which corresponds to that of the untreated control while an efficacy of 100% means that no disease is observed.

[1] = logP by HPLC on reversed-phase column (EEC Directive 79/831 Annex V.A8); format: physicochemical; settings: 40° C., 0.1% aqueous formic acid and acetonitrile, linear gradient 10% to 90% acetonitrile
Protocol: In table 1, the logP values were determined in accordance with EEC Directive 79/831 Annex V.A8 by HPLC (High Performance Liquid Chromatography) on a reversed-phase column (C 18), using the method described below: Temperature: 40° C.; Mobile phases: 0.1% aqueous formic acid and acetonitrile; linear gradient from 10% acetonitrile to 90% acetonitrile. Calibration was carried out using unbranched alkan-2-ones (comprising 3 to 16 carbon atoms) with known logP values (determination of the logP values by the retention times using linear interpolation between two successive alkanones). lambda-max-values were determined using UV-spectra from 200 nm to 400 nm and the peak values of the chromatographic signals.

[2] = HPLC on reversed-phase column (C 18)

| logP [1, 2] | logP ([1]; HPLC, reversed-phase column (C 18)) | SMILES | Efficacy (Alternaria solani) [%] | Efficacy (Pyrenophora teres) [%] |
| --- | --- | --- | --- | --- |
| 3.13 | – | CC(NC(=O)c1c(C(F)F)nn(C)c1Cl)c1cc2ccccc2s1 (racemic) [Example 81] | 100 | 90 |
| 2.98 | – | CC(NC(=O)c1c(C(F)F)nn(C)c1F)c1cc2ccccc2s1 (racemic) [Example 82] | 100 | 90 |
| 4.44 | – | CC(c1csc2ccccc12)N(C(=S)c1c(C(F)F)nn(C)c1F)C1CC1 (racemic) [Example 86] | 70 | 100 |
| 2.32 | – | Cn1nc(C(F)F)c(C(=O)N(Cc2ccco2)C2CC2)c1F [Example 5] | 80 | 95 |
| 2.05 | – | CCN(Cc1nonc1C)C(=O)c1c(C(F)F)nn(C)c1F [Example 28] | 90 | – |
| 3.61 | – | Cc1ccsc1CN(C(=O)c1c(C(F)F)nn(C)c1Cl)C1CCCC1 [Example 37] | 80 | – |
| 3.02 | – | Cc1ccsc1CN(C(=O)c1c(C(F)F)nn(C)c1Cl)C1CC1 [Example 39] | 95 | 100 |
| 2.44 | – | Cc1ccsc1CN(C)C(=O)c1c(C(F)F)nn(C)c1F [Example 42] | 70 | – |
| 3.79 | – | Cc1cc(C(C)N(C(=O)c2c(C(F)F)nn(C)c2Cl)C2CC2)c(C)s1 (stereo not drawn) [Example 49] | 80 | 95 |
| 2.25 | – | Cn1nc(C(F)F)c(C(=O)N(Cc2ccc(Cl)nc2)C2CC2)c1F [Example 67] | 95 | 90 |
| 3.21 | – | Cn1nc(C(F)F)c(C(=O)N(Cc2cc3ccccc3o2)C2CC2)c1Cl [Example 72] | – | 90 |
| 3.52 | – | Cn1nc(C(F)F)c(C(=O)NC2(c3cc4ccccc4o3)CCCC2)c1F [Example 75] | 70 | 89 |
| 2.92 | – | Cn1nc(C(F)F)c(C(=O)NCc2cc3ccccc3s2)c1Cl [Example 83] | 94 | – |
| 2.73 | – | Cn1nc(C(F)F)c(C(=O)NCc2csc3ccccc23)c1F [Example 88] | 78 | – |
| 3.41 | – | Cn1nc(C(F)F)c(C(=O)N(Cc2csc3ccccc23)C2CC2)c1Cl [Example 89] | 80 | 95 |
| 3.61 | – | CC(c1cccc2ccsc12)N(C(=O)c1c(C(F)F)nn(C)c1Cl)C1CC1 (stereo not drawn) [Example 92] | – | 100 |
| 3.31 | – | Cn1nc(C(F)F)c(C(=O)N(Cc2cccc3ccsc23)C2CC2)c1Cl [Example 94] | 95 | 95 |
| 2.68 | – | Cn1nc(C(F)F)c(C(=O)N(Cc2nc3ccccc3s2)C2CC2)c1F [Example 98] | 80 | 100 |
| 2.17 | – | CN(Cc1ccc2nsnc2c1)C(=O)c1c(C(F)F)nn(C)c1F [Example 100] | 95 | – |
| 2.45 | – | CC(C)Oc1ccc(CN(C)C(=O)c2c(C(F)F)nn(C)c2F)cn1 [Example 102] | – | 70 |
| 2.90 | – | Cn1nc(C(F)F)c(C(=O)NC2CCCc3sccc32)c1Cl (stereo not drawn) [Example 103] | 94 | – |
| 2.73 | – | Cn1nc(C(F)F)c(C(=O)NC2CCCc3sccc32)c1F (stereo not drawn) [Example 104] | 94 | – |
| 2.75 | – | CN(Cc1cc(CC(C)(C)C)no1)C(=O)c1c(C(F)F)nn(C)c1F [Example 105] | 95 | 100 |
| 3.17 | – | Cn1nc(C(F)F)c(C(=O)N(Cc2cc(CC(C)(C)C)no2)C2CC2)c1F [Example 106] | 95 | 100 |
| 3.31 | – | Cn1nc(C(F)F)c(C(=O)N(Cc2cc(CC(C)(C)C)no2)C2CC2)c1Cl [Example 107] | – | 80 |
| 2.40 | – | CN(Cc1cnn(-c2ccccc2)c1)C(=O)c1c(C(F)F)nn(C)c1Cl [Example 108] | 90 | – |

| logP [1, 2] | logP ([1]; HPLC, reversed-phase column (C 18)) | SMILES | Efficacy (Alternaria solani) [%] | Efficacy (Pyrenophora teres) [%] |
| --- | --- | --- | --- | --- |
| 2.26 | – | CN(Cc1cnn(-c2ccccc2)c1)C(=O)c1c(C(F)F)nn(C)c1F [Example 109] | 95 | 100 |
| 2.51 | – | CN(Cc1cc(-c2ccccc2)no1)C(=O)c1c(C(F)F)nn(C)c1F [Example 110] | – | 100 |
| 2.92 | – | Cn1nc(C(F)F)c(C(=O)N(Cc2cc(-c3ccccc3)no2)C2CC2)c1F [Example 111] | 95 | 100 |
| 3.04 | – | Cn1nc(C(F)F)c(C(=O)N(Cc2cc(-c3ccccc3)no2)C2CC2)c1Cl [Example 112] | – | 95 |
| 2.58 | – | CN(Cc1nc(-c2ccccc2)no1)C(=O)c1c(C(F)F)nn(C)c1F [Example 114] | 95 | 95 |
| 2.64 | – | Cn1nc(C(F)F)c(C(=O)N(Cc2c(Cl)cncc2Cl)C2CC2)c1Cl [Example 116] | 90 | 95 |
| 2.73 | – | Cn1nc(C(F)F)c(C(=O)N(Cc2cnc(Cl)cc2Cl)C2CC2)c1F [Example 118] | 95 | 100 |
| 3.27 | – | CC(c1cnc(Cl)c(Cl)c1)N(C(=O)c1c(C(F)F)nn(C)c1Cl)C1CC1 (stereo not drawn) [Example 120] | 90 | 100 |
| 3.11 | – | CC(c1cnc(Cl)c(Cl)c1)N(C(=O)c1c(C(F)F)nn(C)c1F)C1CC1 (stereo not drawn) [Example 121] | 95 | 100 |
| 3.74 | – | Cc1c(CN(C(=O)c2c(C(F)F)nn(C)c2Cl)C2CC2)sc2ccccc12 [Example 123] | – | 90 |
| 4.24 | – | CC(c1cc(Cl)sc1Cl)N(C(=O)c1c(C(F)F)nn(C)c1Cl)C1CC1 (stereo not drawn) [Example 127] | 95 | 95 |
| 2.52 | – | CN(Cc1cscc1Br)C(=O)c1c(C(F)F)nn(C)c1F [Example 133] | 70 | 90 |
| 2.92 | – | Cn1nc(C(F)F)c(C(=O)N(Cc2cc(Cl)nc3ccccc23)C2CC2)c1F [Example 138] | – | 100 |
| 3.09 | – | Cn1nc(C(F)F)c(C(=O)N(Cc2cc(Cl)nc3ccccc23)C2CC2)c1Cl [Example 139] | – | 90 |
| 3.48 | – | CN(Cc1sc2ccccc2c1Cl)C(=O)c1c(C(F)F)nn(C)c1F [Example 142] | 80 | 100 |
| 3.83 | – | Cn1nc(C(F)F)c(C(=O)N(Cc2csc3ccc(Cl)cc23)C2CC2)c1Cl [Example 144] | – | 100 |
| 2.77 | – | Cc1nc(-c2ccccc2)sc1CN(C)C(=O)c1c(C(F)F)nn(C)c1F [Example 149] | 80 | 80 |
| 3.39 | – | CC(C)N(Cc1cnn(-c2ccc(Cl)cc2)c1)C(=O)c1c(C(F)F)nn(C)c1Cl [Example 151] | – | 75 |
| 3.59 | – | Cn1nc(C(F)F)c(C(=O)N(Cc2cc(-c3ccc(Cl)cc3)no2)C2CC2)c1Cl [Example 154] | – | 100 |
| 4.13 | – | Cn1nc(C(F)F)c(C(=O)N(Cc2cc3ccccc3n2-c2ccccc2)C2CC2)c1Cl [Example 156] | – | 90 |
| 3.58 | – | Cn1nc(C(F)F)c(C(=O)N(Cc2cc(C(F)(F)F)nc3ccccc23)C2CC2)c1F [Example 159] | – | 100 |
| 3.72 | – | Cn1nc(C(F)F)c(C(=O)N(Cc2cc(C(F)(F)F)nc3ccccc23)C2CC2)c1Cl [Example 160] | – | 90 |
| 3.57 | – | Cn1nc(C(F)F)c(C(=O)N(Cc2ccnc3cc(Cl)cc(Cl)c23)C2CC2)c1Cl [Example 162] | – | 94 |
| 3.11 | – | CN(Cc1cc(-c2cc(F)c(F)c(F)c2)no1)C(=O)c1c(C(F)F)nn(C)c1F [Example 164] | – | 100 |
| – | 3.64 | Cn1nc(C(F)F)c(C(=O)N(Cc2cc(-c3cc(F)c(F)c(F)c3)no2)C2CC2)c1Cl [Example 166] | – | 90 |
